From patent publication US20250388625A1, “CYCLOSPORINE ANALOGUES” (priority 2022, published 2025)

Assays:
Human stem cells (HSC) [1] = assay: Cell viability of human stem cells (FIG. 5); conditions: compared with PS+LB treatment
Human stem cells (HSC) [2] = assay: Mean fluorescent intensity of transduced human stem cells (FIG. 7); type: cell-based; conditions: Examples 5 and 6
Protocol: Here a different measurement was made of transgene expression using the cells from the same experiment as that above (Example 5). Rather than measuring the number of cells transduced (% infection) the mean fluorescent intensity (greenness of the transgene expressing cells) was measured.

IFITM3 [3] = target: T1, IFITM3 (Homo sapiens, UniProt Q01628); assay: IFITM3 levels by immunoblot in IFNβ-treated THP-1 cells (FIG. 9A); type: cell-based; set-up: treated with 10 ng/ml type 1 interferon (IFNβ) overnight to induce IFITM3 expression; endogenous in cells; host or cells: THP-1 (human monocytic cell line), IFNβ-treated; conditions: 5 μM, 6 hours; Actin loading control
T1 sequence (Q01628 whole entry): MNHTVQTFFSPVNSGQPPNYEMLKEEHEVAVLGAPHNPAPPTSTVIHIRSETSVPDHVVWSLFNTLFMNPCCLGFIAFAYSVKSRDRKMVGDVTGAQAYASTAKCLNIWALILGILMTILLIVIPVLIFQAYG
Protocol: THP-1 cells (human monocytic cell line) were treated with […] Type I interferon (IFNβ) overnight to induce IFITM3 expression. […] Protein samples were harvested 6 hours later and the IFITM3 levels measured by immunoblot with Actin detected as a loading control. IFN induces IFITM3.

[4] = system: SARS-COV-2 (Alpha, Delta or Omicron isolates); assay: SARS-COV-2 replication in Calu-3 lung epithelial cells by RT-qPCR (FIG. 9B); type: cell-based
IFITM3 [5] = target: T1, IFITM3; type: cell-based; set-up: treated with 10 ng/ml type 1 interferon (IFNβ) overnight to induce IFITM3 expression; endogenous in cells; host or cells: THP-1 (human monocytic cell line), IFNβ-treated
CypA = CypA (Homo sapiens, UniProt P62937); assay: biochemical; type: binding
CypA, sequence (P62937 whole entry): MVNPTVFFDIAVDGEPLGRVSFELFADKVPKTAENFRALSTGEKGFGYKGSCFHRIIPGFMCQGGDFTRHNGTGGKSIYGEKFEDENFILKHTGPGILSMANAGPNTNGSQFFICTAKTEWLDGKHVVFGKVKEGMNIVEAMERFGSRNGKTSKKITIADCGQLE
Protocol: CypA binding was carried out using surface plasmon resonance as described (Warne J Biol Chem. 2016 Feb. 26; 291 (9): 4356-73).
Surface Plasmon Resonance (SPR) using Biacore at 25° C. was used to study the binding interactions between CypA and various inhibitors. The SPR binding experiments used a duel flow cell with a blank reference. The sensor chip surface was initially activated with a mixture of N-hydroxysuccinimide (NHS,) and N-(3-dimethyl-aminopropyl)-N′-ethyl-carbodiimide hydrochloride (EDC) for 420 s with a flow rate of 10 μl/min on blank flow cell 1 in addition to flow cell 2.
CypA protein was diluted to a concentration of 50 μg/mL by the addition of 10 mM sodium acetate pH 5 solution before immobilisation and covalent attachment to the carboxy-methylated dextran matrix of the Biacore CM5 sensor chip. CypA was run against the surface for 420 s and then any unreacted surface was quenched by 420 s of ethanolamine.
Immobilisations were carried out in the presence of JW47 (Warne J Biol Chem. 2016 Feb. 26; 291 (9): 4356-73).
No regeneration stage was required if the dissociation time was sufficient.
Solvent correction was carried out in each experiment using 8 different DMSO dilutions as reference: 2.8%, 2.6%, 2.4%, 2.2%, 2%, 1.8%, 1.6% & 1.5%.
A 50/50 mixture of buffer and DMSO is required to include a wash cycle in the experiment.
50 μl of CypA (0.1 mg/ml)+40 μL of 10 mM sodium acetate pH5+10 μl of 600 μM of JW47 DMSO solution. This mixture was allowed to stand at room temperature for 10 mins prior to set-up in the injection rack.

SMILES: CC[C@@H]1NC(=O)[C@H]([C@H](O)[C@H](C)C/C=C/c2ccc(C(=O)OCCn3ccnc3)cc2)N(C)C(=O)[C@H](C(C)C)N(C)C(=O)[C@H](CC(C)C)N(C)C(=O)[C@H](CC(C)C)N(C)C(=O)[C@@H](C)NC(=O)[C@H](C)NC(=O)[C@H](CC(C)C)N(C)C(=O)[C@H](C(C)C)NC(=O)[C@H](CC(C)C)N(C)C(=O)CN(C)C1=O [JW3-158, 2-(1H-imidazol-1-yl)ethyl-4-((4R,5R,E)-5-((2S,5S,11S,14S,17S,20S,23R,26S,29S,32S)-5-ethyl-11,17,26,29-tetraisobutyl-14,32-diisopropyl-1,7,10,16,20,23,25,28,31-nonamethyl-3,6,9,12,15,18,21,24,27,30,33-undecaoxo-1,4,7,10,13,16,19,22,25,28,31-undecaazacyclotritriacontan-2-yl)-5-hydroxy-4-methylpent-1-en-1-yl)benzoate]
- cell viability after treatment (Human stem cells (HSC) [1]): viability is good
- overall performance as transduction enhancer in stem cells (Human stem cells (HSC) [2]): not working so well
- IFITM3 protein levels by immunoblot (IFITM3 [3]): most potent effect
- inhibition of viral replication (E copies, fold change vs DMSO) [4]: inhibits Delta and Omicron replication to a greater extent than Alpha
- fold rescue compared to inhibited baseline (IFITM3 [5]): 29.2 fold
- koff (CypA): 0.00217 s⁻¹
- kon (CypA): 13400 M⁻¹ s⁻¹
- Kd (CypA; Kd (Affinity), SPR, Biacore, 25° C.): 1830 nM
- Kd (CypA; Kd (Kinetics), SPR, Biacore, 25° C.): 160 nM
- Max Response (CypA; SPR, Biacore, 25° C.): 27.0 RU
